According to patent publication US8802711B2, “TRPV1 antagonists” (AbbVie Inc., priority 2011, dated 2014):
Like-named read-outs stand apart in the source and are kept apart here.

How the values were obtained:
[1] = target: human TRPV1 receptor (hTRPV1) (Homo sapiens (Human), UniProt Q8NER1); test: Acid activation assay (pH 5.0, FLIPR intracellular Ca2+); type: cell-based; details: 37.5 μM antagonist, percentage of the maximal pH 5.0-induced response remaining, read-out: hTRPV1 H+ (max % remain)
Chain of human TRPV1 receptor (hTRPV1) (Q8NER1 whole entry): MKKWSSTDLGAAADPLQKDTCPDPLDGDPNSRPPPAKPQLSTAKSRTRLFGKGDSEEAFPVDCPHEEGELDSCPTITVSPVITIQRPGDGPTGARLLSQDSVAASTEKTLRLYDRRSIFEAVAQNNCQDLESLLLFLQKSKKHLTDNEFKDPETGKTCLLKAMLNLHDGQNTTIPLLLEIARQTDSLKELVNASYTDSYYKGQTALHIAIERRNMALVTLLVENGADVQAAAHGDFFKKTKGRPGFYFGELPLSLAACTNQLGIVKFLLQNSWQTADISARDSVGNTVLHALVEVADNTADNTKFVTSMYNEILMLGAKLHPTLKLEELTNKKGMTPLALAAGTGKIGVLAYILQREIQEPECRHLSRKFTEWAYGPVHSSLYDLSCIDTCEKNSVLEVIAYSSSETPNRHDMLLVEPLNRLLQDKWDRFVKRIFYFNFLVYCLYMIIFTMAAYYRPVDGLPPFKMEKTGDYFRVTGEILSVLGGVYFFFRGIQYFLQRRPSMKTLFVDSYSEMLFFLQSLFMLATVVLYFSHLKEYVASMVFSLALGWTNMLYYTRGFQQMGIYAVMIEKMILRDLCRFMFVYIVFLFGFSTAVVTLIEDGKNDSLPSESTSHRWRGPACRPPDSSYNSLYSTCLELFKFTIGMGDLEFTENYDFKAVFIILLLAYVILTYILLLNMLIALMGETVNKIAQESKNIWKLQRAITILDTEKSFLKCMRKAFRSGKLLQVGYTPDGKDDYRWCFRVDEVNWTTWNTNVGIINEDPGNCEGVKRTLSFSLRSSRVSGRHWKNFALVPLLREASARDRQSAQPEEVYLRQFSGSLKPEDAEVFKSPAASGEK
Procedure, shortened: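 1321N1 astrocytoma cells stably expressing homomeric hTRPV1, loaded with Calcium-4 dye 90–120 min at 25 °C. Compounds, 12-point half-log range, added 3 min before pH 5.0 DPBS/MES challenge; intracellular Ca2+ read by FLIPR fluorescence.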

[2] = test system: Sprague-Dawley rats; test: Sodium iodoacetate-induced knee joint osteoarthritic pain model; type: in vivo, rat; details: 1 hour after dosing, % return to normalcy of hind limb grip force
From the text: (§1) Adult male Sprague-Dawley rats (250-300 g body weight, Charles River Laboratories, Portage, Mich.) were used. Animal handling and experimental protocols were approved by the Institutional Animal Care and Use Committee (IACUC) at Abbott Laboratories. For all surgical procedures, animals were maintained under isoflurane anesthesia (4-5% to induce, 1-3% to maintain), and the incision sites were sterilized using a 10% povidone-iodine solution prior to and after surgeries.
Unilateral knee joint osteoarthritis was induced in the rats by a single intra-articular (i.a.) injection of sodium iodoacetate (3 mg in 0.05 mL sterile isotonic saline) into the right knee joint cavity under light isoflurane anesthesia using a 26 G needle. […] Pain behavioral assessment of hind limb grip force was conducted by recording the maximum compressive force exerted on the hind limb strain gauge setup, in a commercially available grip force measurement system (Columbus Instruments, Columbus, Ohio), to elicit paw withdrawal. The grip force data was converted to a maximum hindlimb cumulative compressive force (CFmax) (gram force)/kg body weight for each animal. The analgesic effects of test compounds were determined 20 days following the i.a. injection of sodium iodoacetate. The vehicle control group for each compound being tested was assigned 0% whereas the age matched naïve group was assigned as being 100% (normal). The % effect for each dose group was then expressed as % return to normalcy compared to the naïve group. Test compounds were administered orally in 10% ethanol/20% Tween 80/70% polyethylene glycol-400 vehicle at a volume of 2 mL/kg. The assessment of the analgesic effects of test compounds was made 1 hour following oral administration. The assessment of the analgesic effects of test compounds can be made following a single dose or following repeated administration wherein the frequency of dosing is 1 to 2 times daily. The duration of such repeated daily dosing may last for any time greater than one day. A typical duration of repeated daily dosing is about 5 days to about 12 days.

[3] = test system: Sprague-Dawley rats; test: Capsaicin-induced secondary mechanical hypersensitivity; type: in vivo, rat
From the text: as §1
Rats were allowed to acclimate to the study room for 1 hour. They were then briefly restrained, and capsaicin was administered at 10 μg in 10 μL of vehicle (10% ethanol and 2-hydroxypropyl cyclodextrin) by intraplantar injection into the center of the right hind paw. Secondary mechanical hyperalgesia was measured at the heel away from the site of injection at 180 minutes following the administration of capsaicin (Joshi et al 2006, Neuroscience 143, 587-596). Compounds were administered orally (p.o.) one hour before testing ([…]).
Tactile allodynia was measured using calibrated von Frey filaments (Stoelting, Wood Dale, Ill.) as described in Chaplan, S. R., F. W. Bach, J. M. Pogrel, J. M. Chung and T. L. Yaksh, Quantitative assessment of tactile allodynia in the rat paw, J. Neurosci. Methods, 1994, 53, 55. Rats were placed into inverted individual plastic containers (20×12.5×20 cm) on top of a suspended wire mesh grid, and acclimated to the test chambers for 20 minutes. The von Frey filaments with different bending forces (starting with the lowest first and then progressively increasing) were presented perpendicularly to the plantar surface of the selected hind paw, and then hold in this position for approximately 8 sec with enough force to cause a slight bend in the filament. Positive responses included an abrupt withdrawal of the hind paw from the stimulus, or flinching behavior immediately following removal of the stimulus.

Row | Compound | remaining activity at 37.5 µM ([1]; Table 1) [%] | remaining activity at 37.5 µM ([1]; Table 2) [%] | % effect ([2]; 10 mg/kg p.o.) [%] | % effect ([3]; 10 μmol/kg p.o.) [%] | % effect ([3]; 100 μmol/kg p.o.) [%] | % effect ([2]; 100 μmol/kg p.o.) [%]
1 | Cc1cc2c(NC(=O)N[C@@H]3CC[C@H](c4ccccc4)C3)c(F)ccc2cn1 [Example 6, 1-(6-fluoro-3-methylisoquinolin-5-yl)-3-[(1R,3S)-3-phenylcyclopentyl]urea] | 62 | 62 |  | 59 |  | 
2 | O=C(Nc1cccc2[nH]ncc12)N[C@H]1CC[C@H](c2ccccc2)C1 [Example 14, 1-(1H-indazol-4-yl)-3-[(1S,3S)-3-phenylcyclopentyl]urea] | 36 | 36 |  |  | 48 | 

The next lines start with results.

Row | remaining activity at 37.5 µM ([1]; Table 1) [%] | remaining activity at 37.5 µM ([1]; Table 2) [%] | Compound | % effect ([2]; 10 mg/kg p.o.) [%] | % effect ([3]; 10 μmol/kg p.o.) [%] | % effect ([3]; 100 μmol/kg p.o.) [%] | % effect ([2]; 100 μmol/kg p.o.) [%]
3 | 37 | 21 | Cn1ncc2c(NC(=O)N[C@@H]3CC[C@H](c4ccccc4)C3)cccc21 [Example 4, 1-(1-methyl-1H-indazol-4-yl)-3-[(1R,3S)-3-phenylcyclopentyl]urea] | 50 |  |  | 
4 | 8 | 8 | O=C(Nc1cccc2[nH]ncc12)N[C@@H]1CC[C@@H](c2ccccc2)C1 [Example 21, 1-(1H-indazol-4-yl)-3-[(1R,3R)-3-phenylcyclopentyl]urea] | 37 |  |  | 
5 | 41 | 41 | O=C(Nc1cccc2[nH]ncc12)N[C@H]1CC[C@@H](c2ccccc2)C1 [Example 28, 1-(1H-indazol-4-yl)-3-[(1S,3R)-3-phenylcyclopentyl]urea] |  |  | 81 | 78
